Experimental data from patent US10538555B2, “Macrocyclic inhibitors of the PD-1/PD-L1 and CD80(B7-1)/PD-L1 protein/protein interactions” (BRISTOL-MYERS SQUIBB COMPANY, priority 2014, dated 2020).
Where a SMILES comes first, the peptide text is derived from it. Bridges are numbered along the chain shown (N, C = ends). [ ]: non-standard residue; d: D form. Trp(1-CH2COOH) = N[C@@H](Cc1cn(CC(=O)O)c2ccccc12)C(=O)O; Bta = N[C@@H](Cc1csc2ccccc12)C(=O)O; Hyp = O=C(O)[C@@H]1C[C@@H](O)CN1; NMeNle = CCCC[C@H](NC)C(=O)O; NMeA = CN[C@@H](C)C(=O)O; Dab = NCC[C@H](N)C(=O)O; Dap = NC[C@H](N)C(=O)O

These compounds were tested against T1, Human PD-L1/PD-1 (Homo sapiens, UniProt Q9NZQ7) (assay: HTRF Human PD-L1/PD-1 binding assay (PD-1-Ig/PD-L1-His)). Details: PD-L1-His 10 nM, PD-1-Ig 20 nM; class symbol; read-out: HTRF Human PD-L1/PD-1 Binding Assay IC50 Range.
T1 construct: TVMV protease cleavage site (C); made in house; host or cells: HEK293T cells
T1 sequence (Q9NZQ7 with tags, fused parts or gaps): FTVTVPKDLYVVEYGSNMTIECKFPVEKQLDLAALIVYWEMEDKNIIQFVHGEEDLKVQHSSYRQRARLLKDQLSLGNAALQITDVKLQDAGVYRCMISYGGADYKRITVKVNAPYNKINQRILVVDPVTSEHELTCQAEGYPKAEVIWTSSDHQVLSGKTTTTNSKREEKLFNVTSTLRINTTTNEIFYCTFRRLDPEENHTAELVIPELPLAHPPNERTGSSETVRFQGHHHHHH
Summary of the method: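 Compound preincubated 15 min with PD-L1-His (10 nM final), then PD-1-Ig (20 nM final) added for 15 min in dPBS with 0.1% BSA and 0.05% Tween-20. Detection by Eu-cryptate anti-Ig (1 nM) and APC anti-His (20 nM) after 30 min; 665/620 nm HTRF ratio. Proteins expressed in HEK293T.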
With `CCCC[C@H]1C(=O)N(C)[C@@H](CCCC)C(=O)N[C@@H](CN)C(=O)N[C@H](C(=O)NCC(N)=O)CSCC(=O)N[C@@H](Cc2ccc(O)cc2)C(=O)N(C)[C@@H](C)C(=O)N[C@@H](CC(N)=O)C(=O)N2CCC[C@H]2C(=O)N[C@@H](CN)C(=O)N[C@@H](CCC(=O)O)C(=O)N2C[C@H](O)C[C@H]2C(=O)N[C@@H](Cc2c[nH]c3ccccc23)C(=O)N[C@@H](CO)C(=O)N[C@@H](Cc2cn(CC(=O)O)c3ccccc23)C(=O)N1C` [Example 5231] ({CH2CO}-Y[NMeA]NP[Dap]E[Hyp]WS[Trp(1-CH2COOH)][NMeNle][NMeNle][Dap]CG-NH2; thioether N-14) the IC50 was 1 to 9.9 nM. `CCCC[C@H]1C(=O)N(C)[C@@H](CCCC)C(=O)N[C@@H](CCC(=O)O)C(=O)N[C@H](C(=O)NCC(N)=O)CSCC(=O)N[C@@H](Cc2ccc(O)cc2)C(=O)N(C)[C@@H](C)C(=O)N[C@@H](CC(N)=O)C(=O)N2CCC[C@H]2C(=O)N[C@@H](CN)C(=O)N[C@@H](CC(C)C)C(=O)N2C[C@H](O)C[C@H]2C(=O)N[C@@H](Cc2c[nH]c3ccccc23)C(=O)N[C@@H](CCC(=O)O)C(=O)N[C@@H](Cc2c[nH]c3ccccc23)C(=O)N1C` [Example 5232] ({CH2CO}-Y[NMeA]NP[Dap]L[Hyp]WEW[NMeNle][NMeNle]ECG-NH2; thioether N-14) gave an IC50 of 1 to 9.9 nM. `CCCC[C@H]1C(=O)N(C)[C@@H](CCCC)C(=O)N[C@@H](CCC(=O)O)C(=O)N[C@H](C(=O)NCC(N)=O)CSCC(=O)N[C@@H](Cc2ccc(O)cc2)C(=O)N(C)[C@@H](C)C(=O)N[C@@H](CC(=O)O)C(=O)N2CCC[C@H]2C(=O)N[C@@H](CO)C(=O)N[C@@H](CCC(=O)O)C(=O)N2C[C@H](O)C[C@H]2C(=O)N[C@@H](Cc2c[nH]c3ccccc23)C(=O)N[C@@H](CO)C(=O)N[C@@H](Cc2c[nH]c3ccccc23)C(=O)N1C` [Example 5233] ({CH2CO}-Y[NMeA]DPSE[Hyp]WSW[NMeNle][NMeNle]ECG-NH2; thioether N-14) gave an IC50 of 1 to 9.9 nM. In the case of `CCCC[C@H]1C(=O)N(C)[C@@H](CCCC)C(=O)N[C@@H](CC(C)C)C(=O)N[C@H](C(=O)NCC(N)=O)CSCC(=O)N[C@@H](Cc2ccc(O)cc2)C(=O)N(C)[C@@H](C)C(=O)N[C@@H](CC(N)=O)C(=O)N(C)[C@@H](C)C(=O)N[C@@H](Cc2cnc[nH]2)C(=O)N[C@@H](CCC(N)=O)C(=O)N2C[C@H](O)C[C@H]2C(=O)N[C@@H](Cc2c[nH]c3ccccc23)C(=O)N[C@@H](CO)C(=O)N[C@@H](Cc2c[nH]c3ccccc23)C(=O)N1C` [Example 5234] ({CH2CO}-Y[NMeA]N[NMeA]HQ[Hyp]WSW[NMeNle][NMeNle]LCG-NH2; thioether N-14), the IC50 is reported as 1 to 9.9 nM. `CCCC[C@H]1C(=O)N(C)[C@@H](CCCC)C(=O)N[C@@H](CCC(=O)O)C(=O)N[C@H](C(=O)NCC(N)=O)CSCC(=O)N[C@@H](Cc2ccc(O)cc2)C(=O)N(C)[C@@H](C)C(=O)N[C@@H](CC(=O)O)C(=O)N2CCC[C@H]2C(=O)N[C@@H](Cc2cnc[nH]2)C(=O)N[C@@H](CCC(=O)O)C(=O)N2C[C@H](O)C[C@H]2C(=O)N[C@@H](Cc2c[nH]c3ccccc23)C(=O)N[C@@H](CCC(=O)O)C(=O)N[C@@H](Cc2c[nH]c3ccccc23)C(=O)N1C` [Example 5236] ({CH2CO}-Y[NMeA]DPHE[Hyp]WEW[NMeNle][NMeNle]ECG-NH2; thioether N-14) was tested, and the IC50 was 1 to 9.9 nM. With `CCCC[C@H]1C(=O)N(C)[C@@H](CCCC)C(=O)N[C@@H](CCC(=O)O)C(=O)N[C@H](C(=O)NCC(N)=O)CSCC(=O)N[C@@H](Cc2ccc(O)cc2)C(=O)N(C)[C@@H](C)C(=O)N[C@@H](CC(N)=O)C(=O)N2CCC[C@H]2C(=O)N[C@@H](CN)C(=O)N[C@@H](CCC(N)=O)C(=O)N2C[C@H](O)C[C@H]2C(=O)N[C@@H](Cc2c[nH]c3ccccc23)C(=O)N[C@@H](CCN)C(=O)N[C@@H](Cc2c[nH]c3ccccc23)C(=O)N1C` [Example 5237] ({CH2CO}-Y[NMeA]NP[Dap]Q[Hyp]W[Dab]W[NMeNle][NMeNle]ECG-NH2; thioether N-14) the IC50 was 1 to 9.9 nM. For `CCCC[C@H]1C(=O)N(C)[C@@H](CCCC)C(=O)N[C@@H](CN)C(=O)N[C@H](C(=O)NCC(N)=O)CSCC(=O)N[C@@H](Cc2ccc(O)cc2)C(=O)N(C)[C@@H](C)C(=O)N[C@@H](CC(=O)O)C(=O)N2CCC[C@H]2C(=O)N[C@@H](Cc2cnc[nH]2)C(=O)N[C@@H](CCC(N)=O)C(=O)N2C[C@H](O)C[C@H]2C(=O)N[C@@H](Cc2c[nH]c3ccccc23)C(=O)N[C@@H](CCN)C(=O)N[C@@H](Cc2cn(CC(=O)O)c3ccccc23)C(=O)N1C` [Example 5238] ({CH2CO}-Y[NMeA]DPHQ[Hyp]W[Dab][Trp(1-CH2COOH)][NMeNle][NMeNle][Dap]CG-NH2; thioether N-14), the IC50 was 1 to 9.9 nM. Work on `CCCC[C@H]1C(=O)N(C)[C@@H](CCCC)C(=O)N[C@@H](CCC(=O)O)C(=O)N[C@H](C(=O)NCC(N)=O)CSCC(=O)N[C@@H](Cc2ccc(O)cc2)C(=O)N(C)[C@@H](C)C(=O)N[C@@H](CC(N)=O)C(=O)N2CCC[C@H]2C(=O)N[C@@H](CO)C(=O)N[C@@H](CCC(N)=O)C(=O)N2C[C@H](O)C[C@H]2C(=O)N[C@@H](Cc2c[nH]c3ccccc23)C(=O)N[C@@H](CCC(=O)O)C(=O)N[C@@H](Cc2c[nH]c3ccccc23)C(=O)N1C` [Example 5240] ({CH2CO}-Y[NMeA]NPSQ[Hyp]WEW[NMeNle][NMeNle]ECG-NH2; thioether N-14) yielded an IC50 of 1 to 9.9 nM. `CCCC[C@H]1C(=O)N(C)[C@@H](CCCC)C(=O)N[C@@H](CC(C)C)C(=O)N[C@H](C(=O)NCC(N)=O)CSCC(=O)N[C@@H](Cc2ccc(O)cc2)C(=O)N(C)[C@@H](C)C(=O)N[C@@H](CC(N)=O)C(=O)N2CCC[C@H]2C(=O)N[C@@H](Cc2cnc[nH]2)C(=O)N[C@@H](CCC(N)=O)C(=O)N2C[C@H](O)C[C@H]2C(=O)N[C@@H](Cc2c[nH]c3ccccc23)C(=O)N[C@@H](CCN)C(=O)N[C@@H](Cc2cn(CC(=O)O)c3ccccc23)C(=O)N1C` [Example 5241] ({CH2CO}-Y[NMeA]NPHQ[Hyp]W[Dab][Trp(1-CH2COOH)][NMeNle][NMeNle]LCG-NH2; thioether N-14) showed an IC50 of 10 to 99.9 nM. Work on `CCCC[C@H]1C(=O)N(C)[C@@H](CCCC)C(=O)N[C@@H](CCC(=O)O)C(=O)N[C@H](C(=O)NCC(N)=O)CSCC(=O)N[C@@H](Cc2ccc(O)cc2)C(=O)N(C)[C@@H](C)C(=O)N[C@@H](CC(N)=O)C(=O)N2CCC[C@H]2C(=O)N[C@@H](CN)C(=O)N[C@@H](CCC(=O)O)C(=O)N2C[C@H](O)C[C@H]2C(=O)N[C@@H](Cc2c[nH]c3ccccc23)C(=O)N[C@@H](CO)C(=O)N[C@@H](Cc2c[nH]c3ccccc23)C(=O)N1C` [Example 5242] ({CH2CO}-Y[NMeA]NP[Dap]E[Hyp]WSW[NMeNle][NMeNle]ECG-NH2; thioether N-14) yielded an IC50 of 1 to 9.9 nM. `CCCC[C@H]1C(=O)N(C)[C@@H](CCCC)C(=O)N[C@@H](CCC(=O)O)C(=O)N[C@H](C(=O)NCC(N)=O)CSCC(=O)N[C@@H](Cc2ccc(O)cc2)C(=O)N(C)[C@@H](C)C(=O)N[C@@H](CC(N)=O)C(=O)N2CCC[C@H]2C(=O)N[C@@H](CN)C(=O)N[C@@H](CCC(=O)O)C(=O)N2C[C@H](O)C[C@H]2C(=O)N[C@@H](Cc2c[nH]c3ccccc23)C(=O)N[C@@H](CCC(=O)O)C(=O)N[C@@H](Cc2c[nH]c3ccccc23)C(=O)N1C` [Example 5243] ({CH2CO}-Y[NMeA]NP[Dap]E[Hyp]WEW[NMeNle][NMeNle]ECG-NH2; thioether N-14) gave an IC50 of 100 to 990 nM. `CCCC[C@H]1C(=O)N(C)[C@@H](CCCC)C(=O)N[C@@H](CCC(=O)O)C(=O)N[C@H](C(=O)NCC(N)=O)CSCC(=O)N[C@@H](Cc2ccc(O)cc2)C(=O)N(C)[C@@H](C)C(=O)N[C@@H](CC(=O)O)C(=O)N2CCC[C@H]2C(=O)N[C@@H](CN)C(=O)N[C@@H](CCC(N)=O)C(=O)N2C[C@H](O)C[C@H]2C(=O)N[C@@H](Cc2c[nH]c3ccccc23)C(=O)N[C@@H](CCC(=O)O)C(=O)N[C@@H](Cc2c[nH]c3ccccc23)C(=O)N1C` [Example 5245] ({CH2CO}-Y[NMeA]DP[Dap]Q[Hyp]WEW[NMeNle][NMeNle]ECG-NH2; thioether N-14) gave an IC50 of 1 to 9.9 nM. For `CCCC[C@H]1C(=O)N(C)[C@@H](CCCC)C(=O)N[C@@H](CCC(=O)O)C(=O)N[C@H](C(=O)NCC(N)=O)CSCC(=O)N[C@@H](Cc2ccc(O)cc2)C(=O)N(C)[C@@H](C)C(=O)N[C@@H](CC(=O)O)C(=O)N2CCC[C@H]2C(=O)N[C@@H](CN)C(=O)N[C@@H](CCC(N)=O)C(=O)N2C[C@H](O)C[C@H]2C(=O)N[C@@H](Cc2c[nH]c3ccccc23)C(=O)N[C@@H](CO)C(=O)N[C@@H](Cc2c[nH]c3ccccc23)C(=O)N1C` [Example 5246] ({CH2CO}-Y[NMeA]DP[Dap]Q[Hyp]WSW[NMeNle][NMeNle]ECG-NH2; thioether N-14), the IC50 was 1 to 9.9 nM. Compound `CCCC[C@H]1C(=O)N(C)[C@@H](CCCC)C(=O)N[C@@H](CCC(=O)O)C(=O)N[C@H](C(=O)NCC(N)=O)CSCC(=O)N[C@@H](Cc2ccc(O)cc2)C(=O)N(C)[C@@H](C)C(=O)N[C@@H](CC(N)=O)C(=O)N2CCC[C@H]2C(=O)N[C@@H](CO)C(=O)N[C@@H](CC(C)C)C(=O)N2C[C@H](O)C[C@H]2C(=O)N[C@@H](Cc2c[nH]c3ccccc23)C(=O)N[C@@H](CCN)C(=O)N[C@@H](Cc2c[nH]c3ccccc23)C(=O)N1C` [Example 5247] ({CH2CO}-Y[NMeA]NPSL[Hyp]W[Dab]W[NMeNle][NMeNle]ECG-NH2; thioether N-14) has an IC50 of 1 to 9.9 nM. Work on `CCCC[C@H]1C(=O)N(C)[C@@H](CCCC)C(=O)N[C@@H](CC(C)C)C(=O)N[C@H](C(=O)NCC(N)=O)CSCC(=O)N[C@@H](Cc2ccc(O)cc2)C(=O)N(C)[C@@H](C)C(=O)N[C@@H](CC(N)=O)C(=O)N2CCC[C@H]2C(=O)N[C@H](C)C(=O)N[C@@H](CCC(=O)O)C(=O)N2C[C@H](O)C[C@H]2C(=O)N[C@@H](Cc2c[nH]c3ccccc23)C(=O)N[C@@H](CCN)C(=O)N[C@@H](Cc2csc3ccccc23)C(=O)N1C` [Example 5248] ({CH2CO}-Y[NMeA]NP[dA]E[Hyp]W[Dab][Bta][NMeNle][NMeNle]LCG-NH2; thioether N-14) yielded an IC50 of 1 to 9.9 nM.
